The text below walks through data of paper PMC8162404, “Proteomimetic surface fragments distinguish targets by function” (Chemical Science, 2020).

In one experiment the target is T1, Gal-1 (Homo sapiens, UniProt P09382).
T1 construct: made in house; host or cells: E. coli BL21(DE3)
The experiment can be described thus: Pull-down assay with immobilized protein and LSM libraries. It is filed as binding. The conditions noted are these: H12 library; 1:1 binding assumed; read-out: Surface mapping KD (apparent). Put shortly: (§1)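 Buffers were HEPES pH 7.4 with 150 mM NaCl, plus 1 mM TCEP and 1 mM CaCl2 (50 mM HEPES) for S100A4 and S100B, 1 mM TCEP for Gal-1, and no additive for RecQ-WH. Immobilized protein at 64 µM was equilibrated 30 min with the LSM sublibrary, and unbound probes were measured by LC-MS.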

The next experiment concerns the target T2, S100B (Homo sapiens, UniProt P04271).
T2 construct: made in house; host or cells: Escherichia coli BL21(DE3)
T2 sequence (P04271 1-92): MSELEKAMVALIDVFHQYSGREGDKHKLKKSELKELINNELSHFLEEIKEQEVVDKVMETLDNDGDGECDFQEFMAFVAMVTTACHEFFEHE
The experiment is described as above. The format is binding. The note with it: H12 library; 1:1 binding assumed; read-out: Surface mapping KD (apparent). Put shortly:
as §1

T1 sequence (P09382 whole entry): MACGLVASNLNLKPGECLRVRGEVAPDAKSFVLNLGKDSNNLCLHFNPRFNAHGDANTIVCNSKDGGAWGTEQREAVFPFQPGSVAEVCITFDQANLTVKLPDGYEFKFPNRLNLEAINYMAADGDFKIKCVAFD

Regarding `CC(C)[C@@H](CC(=O)N[C@H]1CCC[C@@H]1C(=O)N[C@H]1CCC[C@@H]1C(=O)N[C@@H](CCCNC(=N)N)CC(=O)N[C@H]1CCC[C@@H]1C(=O)N[C@H]1CCC[C@@H]1C(N)=O)NC(=O)[C@H]1CCC[C@@H]1NC(=O)[C@H]1CCC[C@@H]1N` [H12 VR], the Kd at Gal-1 stood at 234 µM; at S100B it was 118 µM.

Consider `C[C@@H](CC(=O)N[C@H]1CCC[C@@H]1C(=O)N[C@H]1CCC[C@@H]1C(=O)N[C@@H](CCCCN)CC(=O)N[C@H]1CCC[C@@H]1C(=O)N[C@H]1CCC[C@@H]1C(N)=O)NC(=O)[C@H]1CCC[C@@H]1NC(=O)[C@H]1CCC[C@@H]1N` [H12 AK], for which the Kd was found to be 303 µM on Gal-1 and 380 µM at S100B.

As to `C[C@@H](CC(=O)N[C@H]1CCC[C@@H]1C(=O)N[C@H]1CCC[C@@H]1C(N)=O)NC(=O)[C@H]1CCC[C@@H]1NC(=O)[C@H]1CCC[C@@H]1NC(=O)C[C@H](CCCNC(=N)N)NC(=O)[C@H]1CCC[C@@H]1NC(=O)[C@H]1CCC[C@@H]1N` [H12 RA], the Kd on Gal-1 turned out to be 485 µM; on S100B, 205 µM.

With `CSCC[C@@H](CC(=O)N[C@H]1CCC[C@@H]1C(=O)N[C@H]1CCC[C@@H]1C(=O)N[C@@H](CCC(N)=O)CC(=O)N[C@H]1CCC[C@@H]1C(=O)N[C@H]1CCC[C@@H]1C(N)=O)NC(=O)[C@H]1CCC[C@@H]1NC(=O)[C@H]1CCC[C@@H]1N` [H12 MQ], the Kd on Gal-1 came out at 173 µM; on S100B it was 192 µM.

As to `C[C@@H](CC(=O)N[C@H]1CCC[C@@H]1C(=O)N[C@H]1CCC[C@@H]1C(N)=O)NC(=O)[C@H]1CCC[C@@H]1NC(=O)[C@H]1CCC[C@@H]1NC(=O)C[C@H](Cc1ccc(O)cc1)NC(=O)[C@H]1CCC[C@@H]1NC(=O)[C@H]1CCC[C@@H]1N` [H12 YA], the Kd on Gal-1 is 222 µM; on S100B, 95 µM.

As for `NCCCC[C@@H](CC(=O)N[C@H]1CCC[C@@H]1C(=O)N[C@H]1CCC[C@@H]1C(=O)N[C@@H](CC(=O)O)CC(=O)N[C@H]1CCC[C@@H]1C(=O)N[C@H]1CCC[C@@H]1C(N)=O)NC(=O)[C@H]1CCC[C@@H]1NC(=O)[C@H]1CCC[C@@H]1N` [H12 KD], the Kd at Gal-1 amounted to 289 µM; at S100B, 149 µM.

`C[C@@H](CC(=O)N[C@H]1CCC[C@@H]1C(=O)N[C@H]1CCC[C@@H]1C(=O)N[C@H](CC(=O)N[C@H]1CCC[C@@H]1C(=O)N[C@H]1CCC[C@@H]1C(N)=O)Cc1ccccc1)NC(=O)[C@H]1CCC[C@@H]1NC(=O)[C@H]1CCC[C@@H]1N` [H12 AF]: the Kd amounted to 428 µM at Gal-1 and 114 µM on S100B.

As to `C[C@@H](CC(=O)N[C@H]1CCC[C@@H]1C(=O)N[C@H]1CCC[C@@H]1C(=O)N[C@H](CC(=O)N[C@H]1CCC[C@@H]1C(=O)N[C@H]1CCC[C@@H]1C(N)=O)Cc1ccc(O)cc1)NC(=O)[C@H]1CCC[C@@H]1NC(=O)[C@H]1CCC[C@@H]1N` [H12 AY], the Kd on Gal-1 amounted to 422 µM; on S100B, 318 µM.

Regarding `CSCC[C@@H](CC(=O)N[C@H]1CCC[C@@H]1C(=O)N[C@H]1CCC[C@@H]1C(=O)N[C@@H](CC(=O)O)CC(=O)N[C@H]1CCC[C@@H]1C(=O)N[C@H]1CCC[C@@H]1C(N)=O)NC(=O)[C@H]1CCC[C@@H]1NC(=O)[C@H]1CCC[C@@H]1N` [H12 MD], the Kd on Gal-1 worked out at 169 µM; at S100B it was 471 µM.

`NC(=O)[C@H]1CCC[C@@H]1NC(=O)[C@H]1CCC[C@@H]1NC(=O)C[C@H](CC(=O)O)NC(=O)[C@H]1CCC[C@@H]1NC(=O)[C@H]1CCC[C@@H]1NC(=O)C[C@H](Cc1c[nH]c2ccccc12)NC(=O)[C@H]1CCC[C@@H]1NC(=O)[C@H]1CCC[C@@H]1N` [H12 WD]: the Kd stood at 297 µM on Gal-1 and 199 µM on S100B.

`CC(C)C[C@@H](CC(=O)N[C@H]1CCC[C@@H]1C(=O)N[C@H]1CCC[C@@H]1C(=O)N[C@@H](CC(N)=O)CC(=O)N[C@H]1CCC[C@@H]1C(=O)N[C@H]1CCC[C@@H]1C(N)=O)NC(=O)[C@H]1CCC[C@@H]1NC(=O)[C@H]1CCC[C@@H]1N` [H12 LN]: the Kd on Gal-1 came to 423 µM; at S100B, 264 µM.
